Tests used:
[1] = target: CDK1/Cyclin E (Homo sapiens) (UniProt P06493+P24864); assay: Inhibition of CDK1/cyclin E (unknown origin) at 10 uM after 120 mins P33 radiolabeled kinase activity assay; type: protein-complex assay
[2] = target: CDK9/cyclin T1 (Homo sapiens) (UniProt O60563+P50750); assay: Inhibition of CDK9/cyclin T1 (unknown origin) at 10 uM after 120 mins P33 radiolabeled kinase activity assay; type: protein-complex assay
[3] = target: Serine/threonine-protein kinase MRCK beta (Homo sapiens) (UniProt Q9Y5S2); assay: Inhibition of MRCKbeta (unknown origin) at 10 uM after 120 mins P33 radiolabeled kinase activity assay
[4] = target: Mitogen-activated protein kinase kinase kinase kinase 4 (Homo sapiens) (UniProt O95819); assay: Inhibition of HGK (unknown origin) at 10 uM after 120 mins P33 radiolabeled kinase activity assay
[5] = target: T1, Serine/threonine-protein kinase BRSK2 (Homo sapiens) (UniProt Q8IWQ3); assay: Inhibition of BRSK2 (unknown origin) at 10 uM after 120 mins P33 radiolabeled kinase activity assay
T1 sequence (whole entry): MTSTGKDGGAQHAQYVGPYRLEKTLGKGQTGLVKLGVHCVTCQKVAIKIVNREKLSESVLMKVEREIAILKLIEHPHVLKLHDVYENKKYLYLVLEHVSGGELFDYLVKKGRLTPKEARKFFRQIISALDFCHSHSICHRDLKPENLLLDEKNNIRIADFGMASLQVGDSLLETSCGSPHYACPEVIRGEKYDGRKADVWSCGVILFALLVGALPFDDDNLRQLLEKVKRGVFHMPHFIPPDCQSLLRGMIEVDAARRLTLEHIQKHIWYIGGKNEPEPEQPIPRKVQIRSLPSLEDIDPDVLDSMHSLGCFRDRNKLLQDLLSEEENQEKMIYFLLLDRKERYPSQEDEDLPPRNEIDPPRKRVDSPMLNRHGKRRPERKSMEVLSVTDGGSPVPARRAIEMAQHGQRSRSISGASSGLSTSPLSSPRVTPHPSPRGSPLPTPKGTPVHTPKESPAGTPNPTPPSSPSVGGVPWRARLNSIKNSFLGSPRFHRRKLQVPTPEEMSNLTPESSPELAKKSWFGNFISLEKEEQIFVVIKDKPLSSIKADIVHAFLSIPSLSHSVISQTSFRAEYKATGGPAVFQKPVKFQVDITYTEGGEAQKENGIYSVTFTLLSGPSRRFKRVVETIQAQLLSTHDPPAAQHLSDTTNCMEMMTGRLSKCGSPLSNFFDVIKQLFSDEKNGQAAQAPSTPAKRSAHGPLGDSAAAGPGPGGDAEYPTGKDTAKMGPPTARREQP

[6] = target: Ephrin type-A receptor 4 (Homo sapiens) (UniProt P54764); assay: Inhibition of EPHA4 (unknown origin) at 10 uM after 120 mins P33 radiolabeled kinase activity assay
[7] = target: MAP kinase-interacting serine/threonine-protein kinase 1 (Homo sapiens) (UniProt Q9BUB5); assay: Inhibition of MNK1 (unknown origin) at 10 uM after 120 mins P33 radiolabeled kinase activity assay
[8] = target: T2, Serine/threonine-protein kinase Nek5 (Homo sapiens) (UniProt Q6P3R8); assay: Inhibition of NEK5 (unknown origin) at 10 uM after 120 mins P33 radiolabeled kinase activity assay
T2 sequence (whole entry): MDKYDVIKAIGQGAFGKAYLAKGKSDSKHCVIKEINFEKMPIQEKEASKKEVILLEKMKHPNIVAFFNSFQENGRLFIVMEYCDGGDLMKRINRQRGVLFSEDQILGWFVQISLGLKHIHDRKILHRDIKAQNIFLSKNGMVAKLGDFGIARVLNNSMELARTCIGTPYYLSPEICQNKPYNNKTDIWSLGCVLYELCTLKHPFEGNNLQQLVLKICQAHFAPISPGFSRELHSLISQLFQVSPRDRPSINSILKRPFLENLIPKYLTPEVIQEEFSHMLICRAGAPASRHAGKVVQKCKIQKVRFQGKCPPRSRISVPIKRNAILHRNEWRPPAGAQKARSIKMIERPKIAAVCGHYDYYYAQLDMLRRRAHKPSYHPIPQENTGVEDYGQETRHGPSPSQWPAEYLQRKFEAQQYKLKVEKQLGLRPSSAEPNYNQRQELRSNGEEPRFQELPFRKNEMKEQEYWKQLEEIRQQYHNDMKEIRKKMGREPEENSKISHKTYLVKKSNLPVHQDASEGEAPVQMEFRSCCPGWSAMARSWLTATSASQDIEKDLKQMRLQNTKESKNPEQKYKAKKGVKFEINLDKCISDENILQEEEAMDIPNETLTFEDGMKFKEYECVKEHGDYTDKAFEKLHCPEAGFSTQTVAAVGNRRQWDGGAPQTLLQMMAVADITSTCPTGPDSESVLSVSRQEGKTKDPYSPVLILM

[9] = target: Leukocyte tyrosine kinase receptor (Homo sapiens) (UniProt P29376); assay: Inhibition of TYK1 (unknown origin) at 10 uM after 120 mins P33 radiolabeled kinase activity assay
[10] = target: Angiopoietin-1 receptor (Homo sapiens) (UniProt Q02763); assay: Inhibition of TIE2 (unknown origin) at 10 uM after 120 mins P33 radiolabeled kinase activity assay
[11] = target: Platelet-derived growth factor receptor alpha (Homo sapiens) (UniProt P16234); assay: Inhibition of PDGFRalpha (unknown origin) at 10 uM after 120 mins P33 radiolabeled kinase activity assay
[12] = target: Macrophage-stimulating protein receptor (Homo sapiens) (UniProt Q04912); assay: Inhibition of RON (unknown origin) at 10 uM after 120 mins P33 radiolabeled kinase activity assay
[13] = target: T3, Testis-specific serine/threonine-protein kinase 1 (Homo sapiens) (UniProt Q9BXA7); assay: Inhibition of STK22D (unknown origin) at 10 uM after 120 mins P33 radiolabeled kinase activity assay
T3 sequence (whole entry): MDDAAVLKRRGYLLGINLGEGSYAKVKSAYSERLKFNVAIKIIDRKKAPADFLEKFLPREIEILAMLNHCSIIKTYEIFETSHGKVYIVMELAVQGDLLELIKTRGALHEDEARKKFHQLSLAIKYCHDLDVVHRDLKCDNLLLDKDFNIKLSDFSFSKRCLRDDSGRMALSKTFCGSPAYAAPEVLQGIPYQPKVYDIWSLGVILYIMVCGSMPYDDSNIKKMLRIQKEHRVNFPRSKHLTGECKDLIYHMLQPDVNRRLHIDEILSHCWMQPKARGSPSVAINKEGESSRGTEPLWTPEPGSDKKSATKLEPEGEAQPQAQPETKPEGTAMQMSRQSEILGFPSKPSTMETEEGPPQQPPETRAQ

Sequence of CDK1/Cyclin E (Homo sapiens) (P06493 whole entry, looked up): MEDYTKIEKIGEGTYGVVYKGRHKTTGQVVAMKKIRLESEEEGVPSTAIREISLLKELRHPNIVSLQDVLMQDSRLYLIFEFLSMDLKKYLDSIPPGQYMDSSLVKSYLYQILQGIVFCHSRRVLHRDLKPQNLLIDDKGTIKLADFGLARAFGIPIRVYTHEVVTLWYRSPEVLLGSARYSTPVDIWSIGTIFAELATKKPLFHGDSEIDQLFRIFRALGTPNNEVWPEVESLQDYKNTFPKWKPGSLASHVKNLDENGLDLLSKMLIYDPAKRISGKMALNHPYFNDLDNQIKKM
Sequence of CDK1/Cyclin E (Homo sapiens) (P24864 whole entry, looked up): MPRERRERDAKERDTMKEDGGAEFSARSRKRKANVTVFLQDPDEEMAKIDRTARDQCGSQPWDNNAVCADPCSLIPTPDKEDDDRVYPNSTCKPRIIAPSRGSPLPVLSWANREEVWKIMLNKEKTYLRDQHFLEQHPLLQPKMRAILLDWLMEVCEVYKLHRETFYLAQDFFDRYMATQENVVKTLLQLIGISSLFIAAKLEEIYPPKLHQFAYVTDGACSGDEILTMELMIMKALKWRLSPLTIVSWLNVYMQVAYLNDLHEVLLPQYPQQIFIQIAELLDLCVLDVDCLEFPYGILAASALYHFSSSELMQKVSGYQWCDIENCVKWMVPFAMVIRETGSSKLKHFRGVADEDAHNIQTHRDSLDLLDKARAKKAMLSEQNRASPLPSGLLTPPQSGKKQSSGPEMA
Sequence of Ephrin type-A receptor 4 (Homo sapiens) (P54764 whole entry): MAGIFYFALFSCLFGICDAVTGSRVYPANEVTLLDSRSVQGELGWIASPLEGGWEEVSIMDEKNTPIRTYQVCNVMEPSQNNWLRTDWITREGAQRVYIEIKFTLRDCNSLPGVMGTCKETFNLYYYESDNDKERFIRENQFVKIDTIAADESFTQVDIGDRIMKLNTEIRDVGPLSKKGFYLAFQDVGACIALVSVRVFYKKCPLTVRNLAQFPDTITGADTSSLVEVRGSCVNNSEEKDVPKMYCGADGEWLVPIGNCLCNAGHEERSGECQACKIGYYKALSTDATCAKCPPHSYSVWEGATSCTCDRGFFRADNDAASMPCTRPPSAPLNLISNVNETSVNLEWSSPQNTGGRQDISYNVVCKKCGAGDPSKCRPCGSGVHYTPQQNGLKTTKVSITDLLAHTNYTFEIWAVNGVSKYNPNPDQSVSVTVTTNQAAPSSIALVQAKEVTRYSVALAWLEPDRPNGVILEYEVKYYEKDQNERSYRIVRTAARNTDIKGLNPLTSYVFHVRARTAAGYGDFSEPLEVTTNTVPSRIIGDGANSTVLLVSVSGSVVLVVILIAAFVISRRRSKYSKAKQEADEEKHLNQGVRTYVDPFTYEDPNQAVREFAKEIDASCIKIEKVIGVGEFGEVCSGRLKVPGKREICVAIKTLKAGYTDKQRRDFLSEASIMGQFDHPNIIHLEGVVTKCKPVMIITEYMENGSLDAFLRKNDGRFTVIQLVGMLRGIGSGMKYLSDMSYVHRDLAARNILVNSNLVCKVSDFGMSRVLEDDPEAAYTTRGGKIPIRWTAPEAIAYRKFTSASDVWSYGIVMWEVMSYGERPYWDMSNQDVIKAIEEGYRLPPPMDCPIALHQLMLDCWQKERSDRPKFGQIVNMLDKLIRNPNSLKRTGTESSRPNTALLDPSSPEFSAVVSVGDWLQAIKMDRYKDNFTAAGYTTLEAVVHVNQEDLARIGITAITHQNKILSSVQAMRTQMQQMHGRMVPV
Sequence of Mitogen-activated protein kinase kinase kinase kinase 4 (Homo sapiens) (O95819 2-1239 limits assumed): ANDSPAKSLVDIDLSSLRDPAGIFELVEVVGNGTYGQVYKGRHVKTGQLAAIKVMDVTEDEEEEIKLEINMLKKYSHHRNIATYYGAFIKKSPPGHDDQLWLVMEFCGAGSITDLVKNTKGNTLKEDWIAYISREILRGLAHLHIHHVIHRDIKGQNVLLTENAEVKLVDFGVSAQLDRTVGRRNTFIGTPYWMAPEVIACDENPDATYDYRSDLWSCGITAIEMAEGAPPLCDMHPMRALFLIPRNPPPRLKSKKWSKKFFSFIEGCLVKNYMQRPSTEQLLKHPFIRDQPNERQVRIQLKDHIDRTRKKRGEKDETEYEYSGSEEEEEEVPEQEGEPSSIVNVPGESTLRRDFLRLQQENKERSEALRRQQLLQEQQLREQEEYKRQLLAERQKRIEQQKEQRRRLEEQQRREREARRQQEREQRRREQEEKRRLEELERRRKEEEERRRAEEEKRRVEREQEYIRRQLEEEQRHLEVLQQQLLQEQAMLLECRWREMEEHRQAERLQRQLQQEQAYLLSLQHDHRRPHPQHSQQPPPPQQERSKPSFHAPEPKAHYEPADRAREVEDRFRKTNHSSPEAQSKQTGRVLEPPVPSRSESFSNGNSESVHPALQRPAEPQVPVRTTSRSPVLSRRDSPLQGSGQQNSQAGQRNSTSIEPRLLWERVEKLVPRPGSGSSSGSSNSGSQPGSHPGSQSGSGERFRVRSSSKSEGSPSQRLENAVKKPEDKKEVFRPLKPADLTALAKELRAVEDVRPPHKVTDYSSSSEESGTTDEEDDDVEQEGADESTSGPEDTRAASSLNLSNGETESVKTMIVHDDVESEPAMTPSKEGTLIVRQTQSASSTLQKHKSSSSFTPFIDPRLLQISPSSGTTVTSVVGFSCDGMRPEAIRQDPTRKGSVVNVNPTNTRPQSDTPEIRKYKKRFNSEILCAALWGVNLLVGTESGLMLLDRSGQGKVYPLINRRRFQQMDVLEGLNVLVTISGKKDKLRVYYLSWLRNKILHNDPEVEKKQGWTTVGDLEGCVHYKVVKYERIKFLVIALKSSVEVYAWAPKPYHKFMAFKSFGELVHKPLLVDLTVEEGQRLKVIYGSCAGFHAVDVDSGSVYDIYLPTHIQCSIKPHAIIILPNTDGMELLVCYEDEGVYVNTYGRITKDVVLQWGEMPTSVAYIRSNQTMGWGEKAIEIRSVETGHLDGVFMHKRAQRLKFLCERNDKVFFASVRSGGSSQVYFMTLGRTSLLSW
Sequence of Leukocyte tyrosine kinase receptor (Homo sapiens) (P29376 whole entry): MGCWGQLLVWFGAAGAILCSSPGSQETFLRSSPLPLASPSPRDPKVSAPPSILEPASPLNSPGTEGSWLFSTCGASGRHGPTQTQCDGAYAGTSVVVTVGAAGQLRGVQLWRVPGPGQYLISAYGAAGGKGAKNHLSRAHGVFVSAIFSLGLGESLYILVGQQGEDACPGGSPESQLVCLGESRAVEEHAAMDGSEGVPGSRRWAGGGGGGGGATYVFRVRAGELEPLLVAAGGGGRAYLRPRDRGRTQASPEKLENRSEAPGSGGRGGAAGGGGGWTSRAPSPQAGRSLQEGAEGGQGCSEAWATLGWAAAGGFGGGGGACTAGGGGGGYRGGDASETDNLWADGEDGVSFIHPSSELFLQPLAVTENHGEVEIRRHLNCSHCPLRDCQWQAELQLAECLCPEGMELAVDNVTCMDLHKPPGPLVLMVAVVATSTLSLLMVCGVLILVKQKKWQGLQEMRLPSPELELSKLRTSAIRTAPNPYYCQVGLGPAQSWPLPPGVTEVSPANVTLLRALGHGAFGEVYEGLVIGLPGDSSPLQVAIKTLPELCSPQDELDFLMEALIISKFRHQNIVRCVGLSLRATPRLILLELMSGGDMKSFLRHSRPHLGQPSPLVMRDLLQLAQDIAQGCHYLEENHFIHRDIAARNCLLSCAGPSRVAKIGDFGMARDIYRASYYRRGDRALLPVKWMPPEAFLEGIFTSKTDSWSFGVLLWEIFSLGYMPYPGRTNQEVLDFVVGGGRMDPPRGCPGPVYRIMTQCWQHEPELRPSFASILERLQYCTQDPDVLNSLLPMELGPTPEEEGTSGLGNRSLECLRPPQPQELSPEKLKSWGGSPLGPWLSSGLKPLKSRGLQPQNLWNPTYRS
Sequence of Angiopoietin-1 receptor (Homo sapiens) (Q02763 whole entry): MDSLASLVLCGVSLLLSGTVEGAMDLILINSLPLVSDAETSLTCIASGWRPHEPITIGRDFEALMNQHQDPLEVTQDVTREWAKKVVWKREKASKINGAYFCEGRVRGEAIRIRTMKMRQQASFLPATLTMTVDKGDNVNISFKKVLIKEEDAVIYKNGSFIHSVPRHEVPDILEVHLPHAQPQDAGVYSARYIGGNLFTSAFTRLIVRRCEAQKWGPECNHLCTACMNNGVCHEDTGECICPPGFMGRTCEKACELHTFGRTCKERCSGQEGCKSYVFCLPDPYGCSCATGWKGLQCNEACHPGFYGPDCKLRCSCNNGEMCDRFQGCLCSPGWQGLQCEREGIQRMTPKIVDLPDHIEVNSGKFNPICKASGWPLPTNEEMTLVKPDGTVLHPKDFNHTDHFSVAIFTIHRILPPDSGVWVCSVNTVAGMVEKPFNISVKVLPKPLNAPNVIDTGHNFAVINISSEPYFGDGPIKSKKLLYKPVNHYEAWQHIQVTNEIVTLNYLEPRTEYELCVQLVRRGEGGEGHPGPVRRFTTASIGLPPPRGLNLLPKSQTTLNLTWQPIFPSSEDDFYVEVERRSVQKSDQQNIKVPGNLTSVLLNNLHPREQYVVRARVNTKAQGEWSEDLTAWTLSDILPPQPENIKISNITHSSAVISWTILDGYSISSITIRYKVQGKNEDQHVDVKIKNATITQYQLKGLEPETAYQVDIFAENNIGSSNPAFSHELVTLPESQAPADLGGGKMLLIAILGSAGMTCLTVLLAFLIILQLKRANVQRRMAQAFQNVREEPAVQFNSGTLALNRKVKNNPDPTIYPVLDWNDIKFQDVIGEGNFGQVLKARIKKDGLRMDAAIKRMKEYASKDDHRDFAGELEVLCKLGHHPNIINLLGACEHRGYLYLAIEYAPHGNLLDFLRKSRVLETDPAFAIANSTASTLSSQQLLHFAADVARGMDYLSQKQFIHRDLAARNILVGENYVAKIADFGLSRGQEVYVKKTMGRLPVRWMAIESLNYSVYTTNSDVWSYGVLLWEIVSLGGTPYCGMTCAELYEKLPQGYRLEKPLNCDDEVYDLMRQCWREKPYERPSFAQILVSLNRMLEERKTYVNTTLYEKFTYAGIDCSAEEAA

Row | Compound | inhibition [1] | inhibition [2] | inhibition [3] | inhibition [4] | inhibition [5] | inhibition [6] | inhibition [7] | inhibition [8] | inhibition [9] | inhibition [10] | inhibition [11] | inhibition [12] | inhibition [13]
1 | COCCNC(=O)c1ccc2c(c1)nc(-c1cnc(-c3ccc(Cl)cc3)[nH]1)n2CCOC | -2.74% | 5.79% | 11.1% | 57.7% | 26.4% | 14.3% | 28.7% | 9.53% | 4.59% | 4.75% | 17.2% | 1.69% | 7.17%
2 | CS(=O)(=O)c1cccc(Nc2nccc(-c3sc(N4CCOCC4)nc3-c3cccc(NS(=O)(=O)c4c(F)cccc4F)c3)n2)c1 | 78.3% | 25.4% | 14.4% | 63.3% | 34% | 70.5% | 73% | 50.5% | 7.78% | 97% | 94.1% | 18.7% | 13.6%
3 | CC(C)(C)c1cc(NC(=O)Nc2ccc(Oc3ccncc3)cc2)no1 | 72.2% | 78.7% | 16.5% | 99.8% | 18.2% | 97% | 99.6% | 27.3% | 35.5% | 69.2% | 98.3% | 70.6% | 7.33%
